Source: patent US7618988B2, “Use of substituted aminomethyl chromans” (Merck Patentgesellschaft, priority 2001, dated 2009)

Experiments:
[1] = system: patients with idiopathic Parkinson's disease; assay: double-blind study, idiopathic Parkinson's disease; format: in vivo, human; conditions: add on, 2.5 to 10 mg b.i.d.
Source text: A typical study to investigate the efficacy of the compounds according to the invention in the treatment of idiopathic Parkinson's disease is described in the following. 180 patients of either sex with idiopathic Parkinson's disease participate in a double-blind study. The main inclusion criteria are Hoehn & Yahr stage ≧2.0 (Hoehn H. M. et al, Neurology 1967; 17: 427442), aged 50-80 years, symptom duration of at least 5 years. (2R,4R)-2-({[5-(4-fluorophenyl)-pyridin-3ylmethyl]-amino}-methyl)-chroman-4-ol monohydrochloride hemihydrate or placebo is administered as “add on” to the conventional Parkinson treatment, which is maintained unchanged during the whole study. The dose of blinded medication is titrated over a period of 4 weeks in a range from 2.5 to 10 mg b.i.d. Then the medication is kept constant for 1 week. Before the start of titration and at the end of the treatment period the patients fill a diary card in 30 min. intervals for 48 hours. The diary card differentiates 5 different states: (1) “on” without dyskinesia, (2) “on” with troublesome dyskinesia, (3) “on” with non-troublesome dyskinesia, (4) “off” time, and (5) time asleep (Hauser R A et al., Clin. Neuropharmacol., 2000, 23, 75-81). […]

[2] = system: patients with advanced idiopathic Parkinson's disease; assay: double-blind study, advanced idiopathic Parkinson's disease with peak-dose dyskinesia; format: in vivo, human; conditions: add on, 2.5 to 10 mg b.i.d., diary card
Source text: A typical study to investigate the efficacy of the compounds according to the invention for adverse effects in Parkinson's disease is described in the following. 40 patients of either sex with advanced idiopathic Parkinson's disease complicated by “peak-dose” dyskinesia participate in a double-blind study. The main inclusion criteria are Hoehn & Yahr stage ≧2.5 (lit.: Hoehn H. M. et al, Neurology 1967; 17: 427-442), aged 40-75 years, symptom duration of at least 5 years, and a l-dopa treatment duration of at least 3 years. (2R,4R)-2-({[5-(4-fluorophenyl)-pyridin-3ylmethyl]-amino}-methyl)-chroman-4-ol monohydrochloride hemihydrate or placebo is administered as “add on” to the conventional Parkinson treatment, which is maintained unchanged during the whole study. The dose of blinded medication is titrated over a period of 3 weeks in a range from 2.5 to 10 mg b.i.d. Then the medication is kept constant for 3 weeks. Before the start of titration and at the end of the treatment period the patients fill a diary card in 30 min. inervals for 48 hours. The diary card differentiates 5 different states: (1) “on” without dyskinesia, (2) “on” with troublesome dyskinesia, (3) “on” with non-troublesome dyskinesia, (4) “off” time, and (5) time asleep (Hauser R A et al., Clin. Neuropharmacol., 2000, 23, 75-81). The primary outcome variable of the protocol is the change in “on” time with troublesome dyskinesia. […] The other parameters are not changed.

MSA patients = assay: study in MSA patients (UPDRS); format: in vivo, human; conditions: add on, 2,5 to 20 mg b.i.d.
Description: The study design is similar to that described above for Parkinson's disease. (2R,4R)-2-({[5-(4-fluorophenyl)-pyridin-3ylmethyl]-amino}-methyl)-chroman-4-ol monohydrochloride hemihydrate or placebo is titrated as “add on” to the conventional treatment (dose range 2,5 to 20 mg b.i.d.). After a double-blind dose-finding phase of 3 weeks during which the individual dose is identified for each patient on the basis of tolerability and efficacy, the dose is maintained unchanged for 3 additional weeks. Before the start of titration and at the end of the treatment period a complete UPDRS assessment is performed in each patient (primary outcome measure).

[3] = system: schizophrenic inpatients on long-term antipsychotic treatment; assay: study in tardive dyskinesia (AIMS); format: in vivo, human; conditions: add on, 2,5 to 20 mg b.i.d., vs placebo period
Source text: Tardive dyskinesia is a common adverse effect of long-term treatment with neuroleptics. A typical study to investigate the efficacy of the compounds according to the invention in tardive dyskinesia is described in the following. 32 schizophrenic (DSM-III-R) inpatients aged 25-60 years on long-term stable antipsychotic treatment (duration of at least 5 years) entered the study. (2R,4R)-2-({[5-(4-fluorophenyl)-pyridin-3ylmethyl]-amino}-methyl)-chroman-4-ol monohydrochloride hemihydrate or placebo is administered as “add on” to the antipsychotic treatment, which is kept constant during the whole study. The dose of blinded medication is titrated over a period of 3 weeks in a range from 2,5 to 20 mg b.i.d. Then the medication is maintained under double-blind conditions for 2 weeks. After a 2-week wash-out period, the test drugs are crossed over. Assessments of tardive dyskinesia by means of the Abnormal Involuntary Movement Scale (AIMS, see above) and of Parkinsonian extrapyramidal side effects (UPDRS, see above) are made pretreatment and posttreatment.

cataleptic rat = assay: reversal of catalepsy in rats; format: in vivo; conditions: subcutaneous; for ED50: Rattus norvegicus, sc, read-out: ED50 (calculated dose to reverse catalepsy by 50%)
Description: R represents hydrogen or a hydroxyl protecting group, and their optical isomers and pharmaceutically acceptable salts, in particular 2-({[5-(4-fluorophenyl)-pyridin-3ylmethyl]-amino}-methyl)-chroman-4-ol or an optical isomer or a physiologically acceptable salt or solvate thereof, excert an extraordinary potency in reversing catalepsy. Extrapyramidal motor side effects in e.g. rodents are measured by the ability of a drug to induce catalepsy. Catalepsy is defined as a state where an animal continues to remain in an unnormal (nonphysiological ‘uncomfortable’) posture for a long time (e.g.: M. E. Stanley and S. D. Glick, Neuropharmacology, 1996; 15: 393-394; C. J. E. Niemegeers and P. Janssen, Life Sci., 1979, […]). For example, if a hindpaw of a rat is placed on an elevated level, e.g. a platform elevated 3 cm above ground level, a normal rat immediately withdraws the hindpaw from the platform to the ground level. A cataleptic rat remains in this unnatural posture even for minutes.

Parkinson patients = conditions: literature; cited from earlier work
parkinsonian monkeys = conditions: literature; cited from earlier work
dopamine D4 receptors = dopamine D4 receptors (Homo sapiens, UniProt P21917); conditions: literature statement; cited from earlier work
Chain of dopamine D4 receptors (P21917 whole entry): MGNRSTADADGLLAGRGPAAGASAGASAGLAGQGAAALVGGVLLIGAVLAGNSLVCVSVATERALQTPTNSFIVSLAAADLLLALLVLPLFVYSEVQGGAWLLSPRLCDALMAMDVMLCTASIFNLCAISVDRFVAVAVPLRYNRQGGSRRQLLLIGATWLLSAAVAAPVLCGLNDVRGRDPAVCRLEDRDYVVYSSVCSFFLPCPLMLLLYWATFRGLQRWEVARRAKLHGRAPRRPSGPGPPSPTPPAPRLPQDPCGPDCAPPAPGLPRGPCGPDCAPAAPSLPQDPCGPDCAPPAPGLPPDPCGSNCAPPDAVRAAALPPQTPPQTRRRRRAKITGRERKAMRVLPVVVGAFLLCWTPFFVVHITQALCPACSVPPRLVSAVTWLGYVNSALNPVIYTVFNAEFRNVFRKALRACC

In the case of “(2R,4R)-2-({[5-(4-fluorophenyl)-pyridin-3ylmethyl]-amino}-methyl)-chroman-4-ol monohydrochloride hemihydrate”, the clinical improvement [1] is reported as “significant clinical improvement”, the “efficacy to treat tremor” value [1] is reported as “efficacy to treat tremor is shown” and the other diary parameters [2] is reported as “not changed”. For the same compound, the ““on” time with troublesome dyskinesia” value [2] was “significant reduction”, the ““on” time without dyskinesia” value [2] was “significantly increase” and the “UPDRS, Parkinson symptoms” value (MSA patients) was “significant clinical improvement of Parkinson symptoms”. The AIMS scores [3] was “significantly lower than during placebo period”.
For `O=C1CC2(CCCC2)CC(=O)N1CCCCN1CCN(c2ncccn2)CC1` [buspirone], the ED50 (cataleptic rat) is listed as 6 mg/kg and the anti-dyskinetic effect (Parkinson patients) is listed as “moderate anti-dyskinetic properties”.
`O=C1c2ccccc2S(=O)(=O)N1CCCCN1CCN(c2ncccn2)CC1` [ipsapirone] gave an ED50 (cataleptic rat) of 10 mg/kg.
For `Cc1ccc2c(c1)C(N1CCN(C)CC1)=Nc1cccnc1N2` [8-methyl-6-(4-methyl-1-piperazineyl)-11 H-pyrido[2,3-b][1,4,]benzodiazepine], the “effects in parkinsonian monkeys” value (parkinsonian monkeys) is listed as “beneficial effects”, the “ED50 (calculated dose to reverse catalepsy by 50%)” value (cataleptic rat) is listed as 3 mg/kg and the “selectivity for the dopamine D4 receptor compared to clozapine” value (dopamine D4 receptors) is listed as “much increased selectivity”.
